From ChEMBL document CHEMBL4823249, “Discovery of a Pyrimidinedione Derivative as a Potent and Orally Bioavailable Axl Inhibitor” (J Med Chem, 2021)

Tests used:
[1] = target: T1, Tyrosine-protein kinase receptor UFO (Homo sapiens, UniProt P30530); assay: Inhibition of AXL (unknown origin) using poly [Glu, Tyr] 4:1 as substrate incubated for 60 mins in presence of ATP by ELISA
T1 sequence (P30530 whole entry): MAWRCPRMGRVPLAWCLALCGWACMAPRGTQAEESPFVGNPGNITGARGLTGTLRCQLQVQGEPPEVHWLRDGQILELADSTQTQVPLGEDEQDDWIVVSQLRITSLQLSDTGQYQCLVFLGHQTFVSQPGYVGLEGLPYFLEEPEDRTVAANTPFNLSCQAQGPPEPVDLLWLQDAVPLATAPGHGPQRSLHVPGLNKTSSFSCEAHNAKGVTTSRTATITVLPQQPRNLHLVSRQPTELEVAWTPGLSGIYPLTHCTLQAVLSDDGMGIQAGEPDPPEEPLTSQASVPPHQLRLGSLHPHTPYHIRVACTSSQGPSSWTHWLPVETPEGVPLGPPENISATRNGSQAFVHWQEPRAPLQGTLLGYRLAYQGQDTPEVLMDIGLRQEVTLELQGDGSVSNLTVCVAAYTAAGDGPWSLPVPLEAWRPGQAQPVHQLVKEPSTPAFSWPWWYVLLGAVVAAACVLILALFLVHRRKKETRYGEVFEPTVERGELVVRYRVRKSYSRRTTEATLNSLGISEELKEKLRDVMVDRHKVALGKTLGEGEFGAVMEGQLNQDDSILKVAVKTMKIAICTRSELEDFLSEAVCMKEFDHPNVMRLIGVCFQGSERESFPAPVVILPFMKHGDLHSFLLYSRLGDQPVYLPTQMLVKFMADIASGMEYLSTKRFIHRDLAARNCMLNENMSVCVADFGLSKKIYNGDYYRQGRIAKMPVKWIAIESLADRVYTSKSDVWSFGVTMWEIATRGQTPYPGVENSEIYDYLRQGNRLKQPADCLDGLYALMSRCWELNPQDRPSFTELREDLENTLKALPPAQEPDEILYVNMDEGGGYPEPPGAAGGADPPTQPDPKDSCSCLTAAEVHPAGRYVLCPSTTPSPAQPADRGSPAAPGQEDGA

BaF3 [2] = assay: Antiproliferative activity against mouse BaF3/TEL-AXL cells incubated for 72 hrs by SRB or CCK8 assay; conditions: BaF3, 72 h
BaF3 [3] = assay: Antitumor activity against mouse BaF3/TEL-AXL cells xenografted in BALB/c nude mouse assessed as tumor growth inhibition at 50 mg/kg, po administered once daily for 14 days by caliper method; assay type: functional; conditions: 336 h, time 14 day, read-out: TGI
[4] = Tmax in Sprague-Dawley rat at 3 mg/kg, po measured upto 24 hrs by LC-MS analysis; assay type: ADME, organism-based; conditions: in vivo
[5] = Cmax in Sprague-Dawley rat at 3 mg/kg, po measured upto 24 hrs by LC-MS analysis; assay type: ADME, organism-based; set-up: route oral, dose 3 mg/kg, time <=24; conditions: in vivo
[6] = AUC(0 to infinity) in Sprague-Dawley rat at 3 mg/kg, po measured upto 24 hrs by LC-MS analysis; assay type: ADME, organism-based; set-up: route oral, dose 3 mg/kg, time <=24; conditions: in vivo
[7] = AUC(0 to t) in Sprague-Dawley rat at 3 mg/kg, po measured upto 24 hrs by LC-MS analysis; assay type: ADME, organism-based; set-up: route oral, dose 3 mg/kg, time <=24; conditions: in vivo
[8] = Half life in Sprague-Dawley rat at 3 mg/kg, po measured upto 24 hrs by LC-MS analysis; assay type: ADME, organism-based; conditions: in vivo
U-87 MG = assay: Antitumor activity against human U-87MG cells xenografted in BALB/c nude mouse assessed as tumor growth inhibition at 50 mg/kg, po administered once daily for 14 days by caliper method; assay type: functional, U-87MG ATCC; conditions: 336 h, time 14 day, read-out: TGI

IC50 (BaF3 [2]) [nM]	Structure (SMILES)	other results
< 0.2	CC(C)n1cc(C(=O)Nc2ccc(Oc3ccnc(NC(=O)N4CCCC4)c3)c(F)c2)c(=O)n(-c2ccc(F)cc2)c1=O	
< 0.2	CC(=O)Nc1cc(Oc2ccc(NC(=O)c3cn(C(C)C)c(=O)n(-c4ccc(F)cc4)c3=O)cc2F)ccn1	
< 0.2	CC(C)n1cc(C(=O)Nc2ccc(Oc3ccnc(NC(=O)N4CCOCC4)c3)c(F)c2)c(=O)n(-c2ccc(F)cc2)c1=O	
43.2	CC(C)n1cc(C(=O)Nc2ccc(Oc3ccnc(NC(=O)C4CCC4)c3)c(F)c2)c(=O)n(-c2ccc(F)cc2)c1=O	
< 0.2	CCC(=O)Nc1cc(Oc2ccc(NC(=O)c3cn(C(C)C)c(=O)n(-c4ccc(F)cc4)c3=O)cc2F)ccn1	
< 0.2	CC(C)n1cc(C(=O)Nc2ccc(Oc3ccnc(-c4cn[nH]c4)c3)c(F)c2)c(=O)n(-c2ccc(F)cc2)c1=O	Tmax [4]: 1.67 h; Cmax [5]: 2570 ng/mL; AUC(0-inf) [6]: 52200 ng·h/mL; AUC(0-t) at 24 h [7]: 31600 ng·h/mL; half-life [8]: 18.2 h
1.9	CC(C)n1cc(C(=O)Nc2ccc(Oc3ccnc(-c4cnn(C)c4)c3)c(F)c2)c(=O)n(-c2ccc(F)cc2)c1=O	
6.3	CC(C)n1cc(C(=O)Nc2ccc(Oc3ccnc(-c4cnn(C5CC5)c4)c3)c(F)c2)c(=O)n(-c2ccc(F)cc2)c1=O	
1	Cc1nn(C)cc1-c1cc(Oc2ccc(NC(=O)c3cn(C(C)C)c(=O)n(-c4ccc(F)cc4)c3=O)cc2F)ccn1	

Continued, compound first:

Structure (SMILES)	IC50 (BaF3 [2]) [nM]	other results
COc1cc(NC(=O)c2cn(C(C)C)c(=O)n(-c3ccc(F)cc3)c2=O)ccc1Oc1ccnc(-c2cnn(C)c2)c1		IC50 [1]: > 1000 nM
CC(C)n1cc(C(=O)Nc2ccc(Oc3ccnc(-c4cnn(CC(C)(C)O)c4)c3)c(F)c2)c(=O)n(-c2ccc(F)cc2)c1=O	2.8	
Nc1nc(Nc2ccc3c(c2)CC[C@@H](N2CCCC2)CC3)nn1-c1cc2c(nn1)-c1ccccc1CCC2 [BEMCENTINIB]	117	inhibition in vivo at 50 mg/kg (BaF3 [3]): 108%
CCOc1cn(-c2ccc(F)cc2)nc1C(=O)Nc1ccc(Oc2ccncc2-c2cnn(C)c2)cc1		IC50 [1]: > 1000 nM
Cn1cc(-c2cnccc2Oc2ccc(NC(=O)C3=C(c4ccccc4)c4ccccc4C3=O)cc2)cn1		IC50 [1]: > 1000 nM
CCc1nc(C(N)=O)c(Nc2ccc(N3CCC(N4CCN(C)CC4)CC3)c(OC)c2)nc1NC1CCOCC1 [GILTERITINIB]	7.6	
C[C@@H](Oc1cc(-c2cnn(C3CCNCC3)c2)cnc1N)c1c(Cl)ccc(F)c1Cl [CRIZOTINIB]		inhibition in vivo at 50 mg/kg (U-87 MG): 93.3%
CC(C)n1cc(C(=O)Nc2ccc(Oc3ccnc(-c4cnn(CCN5CCN(C)CC5)c4)c3)c(F)c2)c(=O)n(-c2ccc(F)cc2)c1=O	19.5	
CCc1ccc2c(c1)c(=O)c(C(=O)Nc1ccc(Oc3ccncc3-c3cnn(C)c3)cc1)c(C)n2C		IC50 [1]: > 1000 nM
Cn1cc(-c2cnccc2Oc2ccc(NC(=O)c3c4c(cn(-c5ccccc5)c3=O)C(=O)CCC4)cc2)cn1		IC50 [1]: > 1000 nM
